Each structure is given as a SMILES string. Bounds are passed on as bounds.

Data on 35 molecules can be found in patent US9370515B2, “Mixed lineage kinase inhibitors and method of treatments” (CALIFIA BIO, INC., priority 2013, dated 2016).

MLK-3, sequence (Q16584 whole entry): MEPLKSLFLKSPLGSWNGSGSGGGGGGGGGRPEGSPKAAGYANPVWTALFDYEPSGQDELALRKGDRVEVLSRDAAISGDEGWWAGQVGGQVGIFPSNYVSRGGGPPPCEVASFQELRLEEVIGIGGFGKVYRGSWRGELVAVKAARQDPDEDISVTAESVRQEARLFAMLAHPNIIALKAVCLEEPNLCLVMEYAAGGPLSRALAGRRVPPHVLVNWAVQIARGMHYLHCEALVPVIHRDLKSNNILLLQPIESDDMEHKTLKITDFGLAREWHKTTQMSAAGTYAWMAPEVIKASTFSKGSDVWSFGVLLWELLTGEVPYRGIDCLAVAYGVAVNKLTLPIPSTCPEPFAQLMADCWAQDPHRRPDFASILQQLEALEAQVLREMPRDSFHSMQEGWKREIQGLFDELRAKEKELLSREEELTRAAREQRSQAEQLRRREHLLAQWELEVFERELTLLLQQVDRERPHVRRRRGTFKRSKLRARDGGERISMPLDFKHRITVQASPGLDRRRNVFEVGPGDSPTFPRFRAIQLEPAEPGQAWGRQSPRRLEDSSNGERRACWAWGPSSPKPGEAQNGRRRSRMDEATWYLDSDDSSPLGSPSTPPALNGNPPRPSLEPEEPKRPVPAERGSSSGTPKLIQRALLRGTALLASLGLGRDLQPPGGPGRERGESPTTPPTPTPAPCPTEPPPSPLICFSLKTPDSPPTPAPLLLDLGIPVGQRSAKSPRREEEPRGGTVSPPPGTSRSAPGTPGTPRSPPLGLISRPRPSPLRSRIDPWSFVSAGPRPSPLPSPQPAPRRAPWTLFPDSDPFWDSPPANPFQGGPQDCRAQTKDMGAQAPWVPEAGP

This assay addresses MLK-3 (Homo sapiens, UniProt Q16584). Nature of the assay: Biochemical assay for the inhibition of kinase activity for MLK-3 (33P-ATP, HOTSPOT filter binding). The conditions noted are these: activated MLK-3 20 nM, ATP 50 μM, myelin basic protein 20 μM, 20 minutes room temperature. The essentials: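 Activated MLK-3 (20 nM) with myelin basic protein (20 μM) in 20 mM Hepes pH 7.5, MgCl2, EGTA, Brij35, BSA, Na3VO4, DTT, 1% DMSO. Started with 33P-ATP at 50 μM ATP, 20 min at room temperature; % activity by HOTSPOT filter binding.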
As a reminder, the IC50 is the concentration needed to halve the response being measured. For `COc1ccc(N(C)c2ccc3ncc(-c4cc5cncc(OC)c5s4)n3n2)cc1OC` [Compound 212, N-(3,4-dimethoxyphenyl)-3-(7-methoxythieno[3,2-c]pyridin-2-yl)-N-methylimidazo[1,2-b]pyridazin-6-amine], the IC50 is below 5000 nM.
Then `c1cc2cc(-c3cnc4ccc(NCC5CC5)nn34)ccc2[nH]1` [Compound 150, N-(cyclopropylmethyl)-3-(1H-indol-5-yl)imidazo[1,2-b]pyridazin-6-amine], with below 5000 nM.
Molecule `O=c1cc(Nc2ccc3ncc(-c4cc5ccccc5s4)n3n2)cc[nH]1` [Compound 41, 4-(3-(benzo[b]thiophen-2-yl)imidazo[1,2-b]pyridazin-6-ylamino)pyridin-2-ol] showed an IC50 of 500 to 1000 nM.
The molecule `CCOc1cccc2cc(-c3cnc4ccc(Nc5ccc(OC)c(OC)c5)nn34)sc12` [Compound 186, 3-(7-ethoxybenzo[b]thiophen-2-yl)-N-(3,4-dimethoxyphenyl)imidazo[1,2-b]pyridazin-6-amine] showed an IC50 of 100 to 500 nM.
With `OCCCCCNc1ccc2ncc(-c3cc4ccccc4s3)n2n1` [Compound 135, 5-(3-(benzo[b]thiophen-2-yl)imidazo[1,2-b]pyridazin-6-ylamino)pentan-1-ol], the IC50 lay in the range of 100 to 500 nM.
`COc1ccc(Nc2ccc3ncc(-c4cc5cncc(C)c5s4)n3n2)cc1OC` [Compound 214, N-(3,4-dimethoxyphenyl)-3-(7-methylthieno[3,2-c]pyridin-2-yl)imidazo[1,2-b]pyridazin-6-amine]: the IC50 lay within 100 to 500 nM.
Regarding `COc1cc2cc(-c3cnc4ccc(Nc5cccc(C(=O)O)c5)nn34)sc2cc1OC` [Compound 71, 3-(3-(5,6-dimethoxybenzo[b]thiophen-2-yl)imidazo[1,2-b]pyridazin-6-ylamino)benzoic acid], the IC50 was below 100 nM.
Then `Cc1nc2ccc(N[C@H]3CC[C@H](O)CC3)nn2c1-c1cc2ccccc2s1` [Compound 111, 4-(3-(benzo[b]thiophen-2-yl)-2-methylimidazo[1,2-b]pyridazin-6-ylamino)cyclohexanol], with below 5000 nM; and `COc1cncc2cc(-c3cnc4ccc(N[C@H]5CC[C@H](OC)CC5)nn34)sc12` [Compound 217], with 100 to 500 nM.
As to `COc1ccc(Nc2ccc3ncc(-c4ccc(CO)s4)n3n2)cc1OC` [Compound 84, (5-(6-(3,4-dimethoxyphenylamino)imidazo[1,2-b]pyridazin-3-yl)thiophen-2-yl)methanol], the IC50 is below 5000 nM.
The molecule `COc1cc2cc(-c3cnc4ccc(NCCC(C)CO)nn34)sc2cc1OC` (centres unmarked) [Compound 171, 4-(3-(5,6-dimethoxybenzo[b]thiophen-2-yl)imidazo[1,2-b]pyridazin-6-ylamino)-2-methylbutan-1-ol] had an IC50 below 100 nM.
In the case of `CCCN(C)c1ccc2ncc(-c3ccc4[nH]ccc4c3)n2n1` [Compound 158, 3-(1H-indol-5-yl)-N-methyl-N-propylimidazo[1,2-b]pyridazin-6-amine], the IC50 is below 5000 nM.
With `COc1ccc(Nc2ccc3ncc(-c4cc5ncccc5s4)n3n2)cc1OC` [Compound 208, N-(3,4-dimethoxyphenyl)-3-(thieno[3,2-b]pyridin-2-yl)imidazo[1,2-b]pyridazin-6-amine], the IC50 is below 5000 nM.
`COc1ccc(Nc2ccc3ncc(-c4cc5cncc(O)c5s4)n3n2)cc1OC` [Compound 211, 2-(6-(3,4-dimethoxyphenylamino)imidazo[1,2-b]pyridazin-3-yl)thieno[3,2-c]pyridin-7-ol] displayed an IC50 below 5000 nM.
Molecule `O=C(O)c1ccc(Nc2ccc3ncc(-c4cc5ccccc5s4)n3n2)cc1` [Compound 25, 4-(3-(benzo[b]thiophen-2-yl)imidazo[1,2-b]pyridazin-6-ylamino)benzoic acid] yielded an IC50 of 500 to 1000 nM.
`Oc1cccc2cc(-c3cnc4ccc(N[C@H]5CC[C@H](O)CC5)nn34)sc12` [Compound 77]: the IC50 was below 100 nM.
`O[C@H]1CC[C@H](Nc2ccc3ncc(-c4cc5ccncc5s4)n3n2)CC1` [Compound 219, trans-4-(3-(thieno[2,3-c]pyridin-2-yl)imidazo[1,2-b]pyridazin-6-ylamino)cyclohexanol] yielded an IC50 below 5000 nM.
Then `COc1ccc2[nH]c(-c3cnc4ccc(N[C@H]5CC[C@H](OC)CC5)nn34)cc2c1` [Compound 198, trans-3-(5-methoxy-1H-indol-2-yl)-N-(4-methoxycyclohexyl)imidazo[1,2-b]pyridazin-6-amine], with below 5000 nM; and `CN1CCN(CCCNc2ccc3ncc(-c4cc5ccccc5s4)n3n2)CC1` [Compound 136, 3-(benzo[b]thiophen-2-yl)-N-(3-(4-methylpiperazin-1-yl)propyl)imidazo[1,2-b]pyridazin-6-amine], with below 5000 nM.
Then `OCCN1CCN(c2ccc3ncc(-c4cc5ccccc5s4)n3n2)CC1` [Compound 119, 2-(4-(3-(benzo[b]thiophen-2-yl)imidazo[1,2-b]pyridazin-6-yl)piperazin-1-yl)ethanol], with below 5000 nM; and `COc1ccc(Nc2ccc3ncc(-c4cc5c(OC)c(OC)c(OC)cc5s4)n3n2)cc1OC` [Compound 76, 3-(4,5,6-trimethoxybenzo[b]thiophen-2-yl)-N-(3,4-dimethoxyphenyl)imidazo[1,2-b]pyridazin-6-amine], with below 5000 nM; and `COc1ccc(Nc2ccc3ncc(-c4cc5ccccc5s4)n3n2)cc1O` [Compound 31, 5-(3-(benzo[b]thiophen-2-yl)imidazo[1,2-b]pyridazin-6-ylamino)-2-methoxyphenol], with below 5000 nM.
`COc1cc2sc(-c3cnc4ccc(N[C@H]5CC[C@H](O)CC5)nn34)cc2c(OC)c1OC` [Compound 176, trans-4-(3-(4,5,6-trimethoxybenzo[b]thiophen-2-yl)imidazo[1,2-b]pyridazin-6-ylamino)cyclohexanol] registered a 50% inhibitory concentration (IC50) of 100 to 500 nM.
Molecule `COc1ccc2sc(-c3cnc4ccc(N[C@H]5CC[C@H](O)CC5)nn34)cc2c1` [Compound 168, trans-4-(3-(5-methoxybenzo[b]thiophen-2-yl)imidazo[1,2-b]pyridazin-6-ylamino)cyclohexanol] had an IC50 of 100 to 500 nM.
Regarding `COc1cccc2cc(-c3cnc4ccc(N[C@H]5CC[C@H](OC)CC5)nn34)[nH]c12` [Compound 199, trans-3-(7-methoxy-1H-indol-2-yl)-N-(4-methoxycyclohexyl)imidazo[1,2-b]pyridazin-6-amine], the IC50 is below 5000 nM.
As to `OC[C@H]1CCCN1c1ccc2ncc(-c3cc4ccccc4s3)n2n1` [Compound 126, ((R)-1-(3-(benzo[b]thiophen-2-yl)imidazo[1,2-b]pyridazin-6-yl)pyrrolidin-2-yl)methanol], the IC50 was below 5000 nM.
Molecule `O[C@H]1CC[C@H](Nc2ccc3ncc(-c4ccsc4)n3n2)CC1` [Compound 180, trans-(3-(thiophen-3-yl)imidazo[1,2-b]pyridazin-6-ylamino)cyclohexanol] showed an IC50 below 5000 nM.
In the case of `COc1cc(Nc2ccc3ncc(-c4cc5cccc(OC(F)(F)F)c5s4)n3n2)ccc1OC(F)(F)F` [Compound 190, N-(3-methoxy-4-(trifluoromethoxy)phenyl)-3-(7-(trifluoromethoxy)benzo[b]thiophen-2-yl)imidazo[1,2-b]pyridazin-6-amine], the IC50 was below 5000 nM.
Regarding `CN1CCN(c2cccc(Nc3ccc4ncc(-c5cc6ccccc6s5)n4n3)c2)CC1` [Compound 13, 3-(benzo[b]thiophen-2-yl)-N-(3-(4-methylpiperazin-1-yl)phenyl)imidazo[1,2-b]pyridazin-6-amine], the IC50 is below 5000 nM.
Then `Oc1ccc(-c2cnc3ccc(N[C@H]4CC[C@H](O)CC4)nn23)cc1` [Compound 102, trans-4-(6-(4-hydroxycyclohexylamino)imidazo[1,2-b]pyridazin-3-yl)phenol], with below 5000 nM; and `COc1ccc(Nc2ccc3ncc(-c4cccc(O)c4)n3n2)cc1OC` [Compound 9, 3-(6-(3,4-dimethoxyphenylamino)imidazo[1,2-b]pyridazin-3-yl)phenol], with below 5000 nM.
With `COc1ccc2c(c1)cc(-c1cnc3ccc(N[C@H]4CC[C@H](O)CC4)nn13)n2C` [Compound 194, trans-4-(3-(5-methoxy-1-methyl-1H-indol-2-yl)imidazo[1,2-b]pyridazin-6-ylamino)cyclohexanol], the IC50 was below 5000 nM.
`O[C@H]1CC[C@H](Nc2ccc3ncc(-c4csc5ccccc45)n3n2)CC1` [Compound 90, trans-4-(3-(benzo[b]thiophen-3-yl)imidazo[1,2-b]pyridazin-6-ylamino)cyclohexanol] had an IC50 of 500 to 1000 nM.
As for `COc1ccc(Nc2ccc3ncc(-c4cc5cccc(OC)c5s4)n3n2)cc1OC(F)(F)F` [Compound 185, N-(4-methoxy-3-(trifluoromethoxy)phenyl)-3-(7-methoxybenzo[b]thiophen-2-yl)imidazo[1,2-b]pyridazin-6-amine], the IC50 is below 5000 nM.
`CN1CCN(c2cccc(Nc3ccc4ncc(-c5ccc6[nH]ccc6c5)n4n3)c2)CC1` [Compound 56, 3-(1H-indol-5-yl)-N-(3-(4-methylpiperazin-1-yl)phenyl)imidazo[1,2-b]pyridazin-6-amine] returned an IC50 of 500 to 1000 nM.
